Test results reported in US7304046B2, “Phosphoramide compounds” (priority 1999, dated 2007).
Read-outs that look alike come from different tables or passages of the source.

What was measured:
[1] = system: A498 (kidney); experiment: Growth inhibition, MTT assay, A498; format: cell-based, human; settings: A498, 72-h drug exposure, read-out: IC50 growth inhibitory activity
Procedure: (§1) The growth inhibitory properties of representative compounds of the invention were also determined by evaluating their growth inhibitory activity against a series of human tumor cell lines using a 72-h drug exposure. Cell counts were measured using the MTT assay.

[2] = system: UMUC3 (bladder); experiment: Growth inhibition, MTT assay, UMUC3; format: cell-based, human; settings: UMUC3, 72-h drug exposure; for IC50: read-out: IC50 growth inhibitory activity
Procedure: as §1

[3] = system: HT-29 (colon); experiment: Growth inhibition, MTT assay, HT-29; format: cell-based, human; settings: HT-29, 72-h drug exposure, read-out: IC50 growth inhibitory activity
Procedure: as §1

[4] = system: MDA231 (breast); experiment: Growth inhibition, MTT assay, MDA231; format: cell-based, human; settings: read-out: IC50 growth inhibitory activity
Procedure: as §1

[5] = system: PC-3 (prostate); experiment: Growth inhibition, MTT assay, PC-3; format: cell-based, human; settings: PC-3, 72-h drug exposure, read-out: IC50 growth inhibitory activity
Procedure: as §1

[6] = system: A549 (lung); experiment: Growth inhibition, MTT assay, A549; format: cell-based, human; settings: A549, 72-h drug exposure, read-out: IC50 growth inhibitory activity
Procedure: as §1

[7] = system: PaCa-2 (pancreas); experiment: Growth inhibition, MTT assay, PaCa-2; format: cell-based, human; settings: PaCa-2, 72-h drug exposure; for IC50: read-out: IC50 growth inhibitory activity
Procedure: as §1

[8] = system: IGROV (ovarian); experiment: Growth inhibition, MTT assay, IGROV; format: cell-based, human; settings: 72-h drug exposure, read-out: IC50 growth inhibitory activity
Procedure: as §1

[9] = Releasing group activity: chemical reduction with sodium dithionite monitored by 31P NMR; format: physicochemical; settings: sodium dithionite 3 equiv, 3:4 CH3CN:0.4 M cacodylate buffer, pH ~7.4, 37° C.
Procedure: (§2) The quinone was dissolved in CH3CN (0.3 mL, or THF for 16a) and the activating agent (glutathione, or sodium dithionite) was dissolved in cacodylate buffer (0.4 mL, 0.4 M, pH 7.7). The buffer solution was added to the organic solution and the pH of the mixture was adjusted to ˜7.4. The reaction mixture was transferred to a 5-mm NMR tube, and the data acquisition was started (pulse delay 30 μs). Spectra were taken every 2.5 minutes for 0.5 h, then every 5 min for 0.5 h, then every 10 min for 1 h, and time points for each spectrum were assigned from the initiation of the reaction. Chemical shifts are reported relative to the TPPO reference. The temperature of the probe was maintained at 37° C., if necessary, using the Bruker variable temperature unit. The relative concentrations of the intermediates were determined by measuring the peak areas.
Naphthoquinone 15a was reduced with sodium dithionite (3 equiv, 3:4 CH3CN:0.4 M cacodylate buffer, pH˜7.4, 37° C.), and the reaction was followed by ^31P NMR. The resonance for quinone […] at −5.3 ppm disappeared within 5 minutes and was replaced by the resonance for the corresponding phosphoramide mustard at −12.2 ppm.

[10] = system: HT-29 cells; experiment: Test A: in vitro cytotoxicity, clonogenic survival of HT-29 cells; format: cell-based, human; settings: 2 h drug treatment, colonies after 10 days, concentration at which there is a 1% cell survival
Description: (§3) Test A: In Vitro Cytotoxicity (Clonogenic Survival of HT-29 and BE Cells):
(§4) The human colon carcinoma cell line HT-29 was obtained from the American Type Culture Collection (ATCC), and the BE cell line was provided by Dr. D. Ross, University of Colorado. A modification of the procedure described by Miribelli et al Cancer Research, 1985, 45, 32–39 was used to determine the clonogenic survival of the cells. HT-29 and BE cells in exponential growth were suspended in unsupplemented Eagles MEM medium (10 mL) at a final density of 1.7–2×10^5 cells/mL. Unsupplemented medium contains Minimum Essential Medium (Gibco) and HEPES (0.02 M). The drug stock solutions (0.1–40 mM) were prepared using either ethanol or dimethyl sulfoxide as solvent. The maximum amount of DMSO or ethanol used in the drug treatments was 1% of the total volume. Appropriate volumes (6.5 to 100 μL) of the drug stock solution were added to five vials of the cell suspensions, to give five different final drug concentrations, and 100 μL of solvent was added to a sixth vial for a control. The treated cells were incubated for 2 h (37° C., 5% CO2). The cells were spun down and rinsed three times with supplemented medium (3 mL) and then diluted in 5 mL of supplemented medium. Supplemented medium is prepared by adding Fetal Bovine Serum (10%), gentamicin (0.05 mg/mL), L-glutamine (0.03 mg/mL), and sodium pyruvate (0.1 mM) to unsupplemented medium. The cells were counted using a Coulter Counter and then plated at 2–3 different densities for each drug concentration and incubated for 10 days. The colonies were stained with 0.5% crystal violet in 95% ethanol and those colonies comprised of 50 or more cells were counted using a microscope and pen-style counter. The LC99 of each compound (the concentration at which there is a 1% cell survival) was determined by plotting the log surviving fraction vs. drug concentration.

[11] = Activation by glutathione monitored by 31P NMR; format: physicochemical
Procedure: as §2
Thus, the following study was conducted to determine whether glutathione would activate compounds of formula I in a similar way. Glutathione, the primary non-protein intracellular thiol, is responsible for maintaining the cellular redox environment and removing potential electrophilic cytotoxins. […] Thus, the reaction of 15a with glutathione (3 equiv, 1:1.3 CH3CN:0.4 M cacodylate buffer, pH˜7.5, RT) was monitored by ^31P NMR.

[12] = system: BE cells; experiment: Test A: in vitro cytotoxicity, clonogenic survival of BE cells; format: cell-based; settings: 2 h drug treatment, colonies after 10 days, concentration at which there is a 1% cell survival
Description: as §3, §4

[13] = system: human tumor cell lines; experiment: Growth inhibition, MTT assay, series of human tumor cell lines (all cell lines); format: cell-based; settings: all cell lines of Table 2, 72-h drug exposure
Procedure: as §1

[14] = Homo sapiens, MDA-MB-231, MDA231, 72-h drug exposure

For “3-(5-Methoxy-1-methyl-4,7-indolequinonyl)methyl N,N-bis(2-bromoethyl)phosphorodiamidate [Compound 4]”, which IC50 [1] is on record?
Its IC50 is 998 nM.

What about the IC50 [2] of the same compound?
The IC50 was 10 nM.

And the IC50 [3]?
Its IC50 is 241 nM.

And the IC50 ([4]; MDA231, 72-h drug exposure)?
The IC50 was 194 nM.

And the IC50 [5]?
The IC50 was 649 nM.

What about the IC50 [6] of the same compound?
Its IC50 is 398 nM.

And the IC50 [7]?
The IC50 was 215 nM.

Which results are given for `COC1=CC(=O)c2c(cc(COP(=O)(N(C)CCBr)N(C)CCBr)n2C)C1=O` [Compound 5, 2-(5-Methoxy-1-methyl-4,7-indolequinonyl)methyl bis[N-methyl-N-(2-bromoethyl)]phosphorodiamidate]?
IC50 ([1]; Homo sapiens): 2650 nM; IC50 ([8]; Homo sapiens): 7590 nM; IC50 ([2]; Homo sapiens): 14 nM; IC50 values in words [2]: low nanomolar range; IC50 ([3]; Homo sapiens): 93 nM; IC50 [4, 14]: 210 nM; IC50 ([5]; Homo sapiens): 420 nM; IC50 ([6]; Homo sapiens): 260 nM; IC50 ([7]; Homo sapiens): 13 nM; IC50 values in words [7]: low nanomolar range

What does the source list for `COC1=CC(=O)c2c(cc(COP(N)(=O)N(CCCl)CCCl)n2C)C1=O` (stereo not shown) [Compound 6a, 2-(5-Methoxy-1-methyl-4,7-indolequinonyl)methyl N,N-bis(2-chloroethyl)phosphorodiamidate]?
IC50 [1]: 862 nM; IC50 [8]: 1700 nM; IC50 values in words [2]: low nanomolar range; IC50 [2]: 22 nM; IC50 [3]: 340 nM; IC50 ([4]; MDA231, 72-h drug exposure): 3500 nM; IC50 [5]: 170 nM; IC50 [6]: 203 nM; IC50 values in words [7]: low nanomolar range; IC50 [7]: 6 nM

For `COC1=CC(=O)c2c(cc(COP(N)(=O)N(CCBr)CCBr)n2C)C1=O` (stereo not shown) [Compound 6b, 2-(5-Methoxy-1-methyl-4,7-indolequinonyl)methyl N,N-bis(2-bromoethyl)phosphorodiamidate], which IC50 [1] is on record?
Its IC50 is 199 nM.

What about the IC50 [8] of the same compound?
Its IC50 is 1470 nM.

What about the “IC50 values in words” value [2] of the same compound?
The value was “low nanomolar range”.

And the IC50 [2]?
The IC50 was 1 nM.

What about the IC50 [3] of the same compound?
Its IC50 is 61 nM.

And the IC50 ([4]; MDA231, 72-h drug exposure)?
The IC50 was 1630 nM.

What about the IC50 [5] of the same compound?
The IC50 was 195 nM.

What about the IC50 [6] of the same compound?
The IC50 was 9 nM.

What about the “IC50 values in words” value [7] of the same compound?
Its value is “low nanomolar range”.

And the IC50 [7]?
The IC50 was 35 nM.

What does the source list for `NP(=O)(OCC1=CC(=O)c2ccccc2C1=O)N(CCCl)CCCl` (stereo not shown) [Compound 15a, 2-(1,4-Naphthoquinonyl)methyl N,N-bis(2-chloroethyl) phosphorodiamidate]?
time until quinone resonance disappeared and was replaced by phosphoramide mustard resonance [9]: ≤ 5 min; LC99 [10]: 11 µM; time until quinone resonance disappeared and was replaced by phosphorodiamidate anion resonance ([11]; glutathione 3 equiv, 1:1.3 CH3CN:0.4 M cacodylate buffer, pH ~7.5, RT): ≤ 4 min; activation with one equivalent of glutathione, in words ([11]; only one equivalent of glutathione, compared with 3 equiv): essentially identical; LC99 [12]: 13 µM

What does the source list for `CC1=C(COP(N)(=O)N(CCCl)CCCl)C(=O)c2ccccc2C1=O` (stereo not shown) [Compound 15b, 2-(3-Methyl-1,4-naphthoquinonyl)methyl N,N-bis(2-chloroethyl) phosphorodiamidate]?
LC99 [10]: 2.1 µM; LC99 [12]: 1.0 µM

Which LC99 [10] does the source give for `CSC1=C(COP(N)(=O)N(CCCl)CCCl)C(=O)c2ccccc2C1=O` (stereo not shown) [Compound 15c, 2-(3-Thiomethyl-1,4-naphthoquinonyl)methyl N,N-bis(2-chloroethyl)phosphorodiamidate] here?
The LC99 was 4.2 µM.

And the LC99 [12]?
Its LC99 is 5.9 µM.

What does the source list for `NP(=O)(OCC1=C(Br)C(=O)c2ccccc2C1=O)N(CCCl)CCCl` (stereo not shown) [Compound 15d, 2-(3-Bromo-1,4-naphthoquinonyl)methyl N,N-bis(2-chloroethyl)phosphorodiamidate]?
LC99 [10]: 4.1 µM; LC99 [12]: 3.3 µM

Which LC99 [10] does the source give for `CC1=C(COP(N)(=O)N(CCBr)CCBr)C(=O)c2ccccc2C1=O` (stereo not shown) [Compound 16b, 2-(3-Methyl-1,4-naphthoquinonyl)methyl N,N-bis(2-bromoethyl) phosphorodiamidate] here?
The LC99 was 1.7 µM.

What about the LC99 [12] of the same compound?
Its LC99 is 1.2 µM.

Which LC99 [10] does the source give for `O=C1C=C(COP(=O)(NCCCl)NCCCl)C(=O)c2ccccc21` [Compound 17, 2-(1,4-Naphthoquinonyl)methyl bis[N-(2-chloroethyl)] phosphorodiamidate] here?
Its LC99 is 14 µM.

And the LC99 [12]?
The LC99 was 7.8 µM.

With `CN(CCBr)P(=O)(OCC1=CC(=O)c2ccccc2C1=O)N(C)CCBr` [Compound 40a, 2-(1,4-Naphthoquinonyl)methyl bis[N-methyl-N-(2-bromoethyl)]phosphorodiamidate] as the compound, how does the IC50 [1] read?
The IC50 was 4460 nM.

What about the IC50 [8] of the same compound?
The IC50 was 2050 nM.

What about the IC50 [2] of the same compound?
The IC50 was 9950 nM.

What about the LC99 [10] of the same compound?
The LC99 was 4.5 µM.

And the IC50 [3]?
The IC50 was 5920 nM.

And the IC50 ([4]; MDA231, 72-h drug exposure)?
The IC50 was 3230 nM.

What about the “IC50 in words, against all cell lines” value [13] of the same compound?
Its value is “low micromolar range”.

What about the IC50 [5] of the same compound?
The IC50 was 2560 nM.

What about the IC50 [6] of the same compound?
Its IC50 is 11200 nM.

And the LC99 [12]?
The LC99 was 1.2 µM.

And the IC50 [7]?
The IC50 was 2300 nM.

Which results are given for `CC1=C(COP(=O)(N(C)CCBr)N(C)CCBr)C(=O)c2ccccc2C1=O` [Compound 40b, 2-(3-Methyl-1,4-naphthoquinonyl)methyl bis[N-methyl-N-(2-bromoethyl)] phosphorodiamidate]?
LC99 [10]: 1.5 µM; LC99 [12]: 0.44 µM

For `CN(CCCl)P(=O)(OCC1=CC(=O)c2ccccc2C1=O)N(C)CCCl` [Compound 40c, 2-(1,4-Naphthoquinonyl)methyl bis[N-methyl-N-(2-chloroethyl)]phosphorodiamidate], which LC99 [10] is on record?
The LC99 was 4.5 µM.

And the LC99 [12]?
The LC99 was 2.8 µM.

Which IC50 ([1]; Homo sapiens) does the source give for `COC1=CC(=O)c2c(c(COP(=O)(N(C)CCBr)N(C)CCBr)cn2C)C1=O` [Compound 47, 3-(5-Methoxy-1-methyl-4,7-indolequinonyl)-methyl bis[N-methyl-N-(2-bromoethyl)] phosphorodiamidate] here?
Its IC50 is 344 nM.

What about the IC50 ([8]; Homo sapiens) of the same compound?
The IC50 was 494 nM.

What about the IC50 ([2]; Homo sapiens) of the same compound?
Its IC50 is 2 nM.

And the “IC50 values in words” value [2]?
The value was “low nanomolar range”.

And the LC99 [10]?
The LC99 was 0.07 µM.

What about the IC50 ([3]; Homo sapiens) of the same compound?
The IC50 was 65 nM.

And the IC50 [4, 14]?
The IC50 was 40 nM.

And the IC50 ([5]; Homo sapiens)?
The IC50 was 66 nM.

And the IC50 ([6]; Homo sapiens)?
Its IC50 is 23 nM.

What about the LC99 [12] of the same compound?
The LC99 was 0.14 µM.

What about the IC50 ([7]; Homo sapiens) of the same compound?
The IC50 was 25 nM.

And the “IC50 values in words” value [7]?
The value was “low nanomolar range”.
